The source of these data is patent publication US20170275270A1, “BENZYL SUBSTITUTED INDAZOLES” (Bayer Pharma Aktiengesellschaft, priority 2014, published 2017).

Where a name gives a salt, the structure may show the parent alone. Read-outs that look alike come from different tables or passages of the source. Where only a bound is given, the exact number is not on record here.

The target in test [1] is T1, catalytic domain of human Bub1 (amino acids 704-1085) (Homo sapiens, UniProt O43683).
T1 construct: catalytic domain of human Bub1 (amino acids 704-1085); His6 (N); made in house; host or cells: Hi5 insect cells
T1 sequence (O43683 704-1085): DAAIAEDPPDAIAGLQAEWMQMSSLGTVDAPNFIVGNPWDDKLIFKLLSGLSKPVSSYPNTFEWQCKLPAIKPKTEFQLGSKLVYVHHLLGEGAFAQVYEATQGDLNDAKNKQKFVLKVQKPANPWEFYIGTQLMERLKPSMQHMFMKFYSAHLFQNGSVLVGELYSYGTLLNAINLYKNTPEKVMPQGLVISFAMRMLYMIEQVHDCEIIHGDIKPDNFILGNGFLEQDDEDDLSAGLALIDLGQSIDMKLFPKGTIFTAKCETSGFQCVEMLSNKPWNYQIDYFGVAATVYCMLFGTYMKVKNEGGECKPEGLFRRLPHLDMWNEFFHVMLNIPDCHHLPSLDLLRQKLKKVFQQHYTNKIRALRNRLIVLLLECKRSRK
Nature of the test: Bub1 kinase assay (TR-FRET). The format is biochemical. The essentials: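 Compounds from 2 mM DMSO stocks, serially diluted 1:3.4, incubated with enzyme at 22° C for 60 min. Stopped with EDTA, then 1 h with streptavidin-XL665, anti-phosphoserine antibody and Eu-labelled anti-mouse IgG. Phosphorylated biotin-peptide read by TR-FRET; IC50 by 4-parameter logistic fit.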
Background: In TR-FRET formats the signal depends on donor and acceptor labels being close together.

Another test addresses Bub1 (Homo sapiens, UniProt O43683). Nature of the test: Formation-Assay: phosphorylation status of histone 2A by inhibition of kinase activity of Bub1. The settings on record: Biological Assay 4.1: H2A Formation IC50, co-treatment with Nocodazole 1 μg/ml, 16 h. The format is cell-based. The procedure, abridged:
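Cells co-treated 16 h with Nocodazole (1 μg/ml) and compound (3 nM–10 μM), then fixed and immunostained for phospho-H2A, read by infrared imaging (800 nm) normalised to cell stain (700 nm). Nocodazole-only set as 100%, untreated cells as 0%.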

The subject of a further test is HeLa. Description: Proliferation assay (HeLa cell line).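 Further: crystal violet staining of cell number, scaled between a plate stained before dosing (0%) and cells left untreated (100%), compounds tested at 0.001-10 µM, IC50 via 4-parameter fit.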 The settings on record: Homo sapiens, 96 h, read-out: Biological Assay 2: Proliferation assay (HeLa cell line) median IC50.
In test [2] the test system is HeLa human cervical tumor cells. Nature of the test: Proliferation assay (HeLa+Paclitaxel).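 Further: compounds at 0.001-10 µM added 4 h after paclitaxel, 92 h exposure, absorbance normalized to zero-point plate (0%) and untreated cells (100%), IC50 from 4-parameter fit.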 The settings on record: read-out: Biological Assay 3: HeLa + Paclitaxel IC50, 3 nM paclitaxel, crystal violet.
Method: Proliferation Assay (HeLa+Paclitaxel):
Cultivated HeLa human cervical tumor cells (DSMZ ACC-57) were plated at a density of 3000 cells/well in a 96-well multititer plate in 200 μL of growth medium supplemented 10% fetal calf serum. After 24 hours, the cells of one plate (zero-point plate) were stained with crystal violet (see below). The medium of the other plates was supplemented with 3 nM of paclitaxel (Sigma-Aldrich) and the cells were incubated at 37° C. After 4 hours the test substances were added in various concentrations (0 μM, as well as in the range of 0.001-10 μM; the final concentration of the solvent dimethyl sulfoxide was adjusted to 0.1%) using a Hewlett-Packard HP D300 Digital Dispenser. The cells were incubated for another 92 hours at 37° C. in the presence of test substances. Cell proliferation was determined by staining the cells with crystal violet: the cells were fixed by adding 20 μL/measuring point of an 11% glutaric aldehyde solution for 15 minutes at room temperature. After three washing cycles of the fixed cells with water, the plates were dried at room temperature. The cells were stained by adding 100 μL/measuring point of a 0.1% crystal violet solution (pH 3.0). After three washing cycles of the stained cells with water, the plates were dried at room temperature. The dye was dissolved by adding 100 μL/measuring point of a 10% acetic acid solution. […] The change of cell number, in percent, was calculated by normalization of the measured values to the absorbtion values of the zero-point plate (=0%) and the absorbtion of the untreated (0 μm) cells (=100%). The IC50 values were determined by means of a 4 parameter fit.
Where [3] appears, read: 10 μM ATP, read-out: Biological Assay 1: Bub1 kinase assay median IC50.
[4] abbreviates: Biological Assay 1: Bub1 kinase assay median IC50, 10 μM ATP.

Bub1, sequence (O43683 whole entry): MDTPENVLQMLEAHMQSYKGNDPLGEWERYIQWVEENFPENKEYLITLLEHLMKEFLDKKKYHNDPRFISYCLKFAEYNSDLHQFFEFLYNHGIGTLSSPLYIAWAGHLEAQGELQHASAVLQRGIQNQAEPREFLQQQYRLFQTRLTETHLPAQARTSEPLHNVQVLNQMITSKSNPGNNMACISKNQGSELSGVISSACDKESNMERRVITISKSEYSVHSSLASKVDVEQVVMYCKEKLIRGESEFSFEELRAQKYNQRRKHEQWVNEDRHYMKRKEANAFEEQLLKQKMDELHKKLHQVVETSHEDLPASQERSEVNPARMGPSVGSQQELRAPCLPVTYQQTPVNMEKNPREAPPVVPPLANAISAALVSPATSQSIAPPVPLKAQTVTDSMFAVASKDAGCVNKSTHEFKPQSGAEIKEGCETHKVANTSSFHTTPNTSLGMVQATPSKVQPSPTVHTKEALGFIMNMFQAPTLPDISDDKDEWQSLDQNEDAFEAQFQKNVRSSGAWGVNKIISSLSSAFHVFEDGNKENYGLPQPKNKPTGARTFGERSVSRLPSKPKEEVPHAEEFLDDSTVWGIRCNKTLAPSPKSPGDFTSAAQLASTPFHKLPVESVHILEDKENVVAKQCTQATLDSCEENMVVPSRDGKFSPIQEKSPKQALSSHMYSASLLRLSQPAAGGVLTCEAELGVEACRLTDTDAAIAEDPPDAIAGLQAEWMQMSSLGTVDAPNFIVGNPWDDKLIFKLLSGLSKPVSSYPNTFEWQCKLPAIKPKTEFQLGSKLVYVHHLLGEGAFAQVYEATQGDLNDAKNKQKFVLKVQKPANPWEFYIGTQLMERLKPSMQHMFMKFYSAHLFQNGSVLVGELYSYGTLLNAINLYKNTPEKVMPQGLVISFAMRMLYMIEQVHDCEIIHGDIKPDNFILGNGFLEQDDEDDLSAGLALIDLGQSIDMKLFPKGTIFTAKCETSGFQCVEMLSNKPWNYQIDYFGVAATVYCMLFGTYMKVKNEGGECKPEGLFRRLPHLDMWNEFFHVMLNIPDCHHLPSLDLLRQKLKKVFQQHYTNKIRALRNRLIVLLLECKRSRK

As for `CCOc1cc(F)c(Cn2nc(-c3nc(CO)cc(Nc4ccncc4C)n3)c3ccccc32)c(F)c1` [Example 2-6-4, {2-[1-(4-ethoxy-2,6-difluorobenzyl)-1H-indazol-3-yl]-6-[(3-methylpyridin-4-yl)amino]pyrimidin-4-yl}methanol], the IC50 in test [1] (setting [3]) is 0.0091 µM; at Bub1, 0.052 µM; in the test with HeLa it was 1.4 µM; in test [2], 0.17 µM.

Turning to `CCOc1cc(F)c(Cn2nc(-c3ncc(CCNCC(F)(F)F)c(Nc4ccncc4)n3)c3ccccc32)c(F)c1` [Example 2-16-1, 2-[1-(4-ethoxy-2,6-difluorobenzyl)-1H-indazol-3-yl]-N-(pyridin-4-yl)-5-{2-[(2,2,2-trifluoroethyl)amino]ethyl}pyrimidin-4-amine], the IC50 in test [1] (setting [4]) came to 0.018 µM; at Bub1, 0.018 µM; with HeLa it was 3 µM; in test [2], 0.2 µM.

On to `CCOc1cc(F)c(Cn2nc(-c3nc4c(c(Nc5ccnc(NC(C)=O)c5)n3)CC(C)(C)C4)c3ccccc32)c(F)c1` [Example 2-12-65, N-[4-({2-[1-(4-ethoxy-2,6-difluorobenzyl)-1H-indazol-3-yl]-6,6-dimethyl-6,7-dihydro-5H-cyclopenta[d]pyrimidin-4-yl}amino)pyridin-2-yl]acetamide], for which the IC50 in test [1] (setting [4]) is 0.022 µM; on Bub1 it was 0.0033 µM; in the test on HeLa it was more than 10 µM; in test [2] it was 0.11 µM.

For the compound `CCOc1cc(F)c(Cn2nc(-c3ncc4c(n3)N(c3ccncc3)C[C@H]4CNCC(F)(F)F)c3ccccc32)c(F)c1` [Example 2-11-3, N-({2-[1-(4-ethoxy-2,6-difluorobenzyl)-1H-indazol-3-yl]-7-(pyridin-4-yl)-6,7-dihydro-5H-pyrrolo[2,3d]pyr-imidin-5-yl}methyl)-2,2,2-trifluoroethanamine], the IC50 in test [1] (setting [4]) was found to be 0.012 µM; at Bub1 it was 0.093 µM; in the test with HeLa, 3 µM; in test [2] it was 0.1 µM.

Consider `CCOc1cc(F)c(Cn2nc(-c3nc4c(c(Nc5ccnc(C(F)(F)F)c5)n3)CNC4)c3ccccc32)c(F)c1` [Example 2-9-15, 2-[1-(4-ethoxy-2,6-difluorobenzyl)-1H-indazol-3-yl]-N-[2-(trifluoro-methyl)pyridin-4-yl]-6,7-dihydro-5H-pyrrolo[3,4-d]pyrimidin-4-amine, salt with hydrochloric acid], for which the IC50 in test [1] (setting [4]) worked out at 3.3 µM; on Bub1, 0.0028 µM; in the test on HeLa, 4 µM; in test [2], 0.34 µM.

Regarding `OCCOc1cc(F)c(Cn2nc(-c3ncc(C4CCN(CCC(F)(F)F)CC4)c(Nc4ccncc4Cl)n3)c3ccccc32)c(F)c1` [Example 2-6-15, 2-{4-[(3-{4-[(3-chloropyridin-4-yl)amino]-5-[1-(3,3,3-trifluoropropyl)piperidin-4-yl]pyrimidin-2-yl}-1H-indazol-1-yl)methyl]-3,5-difluorophenoxy} ethanol], the IC50 turned out to be 0.031 µM in test [1] (setting [4]), 0.019 µM at Bub1, 2.2 µM in the test with HeLa and 0.18 µM in test [2].

For the compound `CCOc1cc(F)c(Cn2nc(-c3ncc(C4CCN(CC(F)(F)F)CC4)c(Nc4ccnc(NC(C)=O)c4)n3)c3ccccc32)c(F)c1` [Example 2-20-1, N-[4-({2-[1-(4-ethoxy-2,6-difluorobenzyl)-1H-indazol-3-yl]-5-[1-(2,2,2-trifluoroethyl)piperidin-4-yl]pyrimidin-4-yl}amino)pyridin-2-yl]acetamide], the IC50 in test [1] (setting [4]) was 0.017 µM; at Bub1, 0.11 µM; in the test on HeLa, more than 10 µM; in test [2] it was 0.13 µM.

In the case of `CS(=O)(=O)CCCc1cnc(-c2nn(Cc3c(F)cc(OCCO)cc3F)c3ccccc23)nc1Nc1ccncc1` [Example 2-4-2, 2-{3,5-difluoro-4-[(3-{5-[3-(methylsulfonyl)propyl]-4-(pyridin-4-ylamino)pyrimidin-2-yl}-1H-indazol-1-yl)methyl]phenoxy}ethanol], the IC50 in test [1] (setting [4]) was 0.015 µM; on Bub1, 0.07 µM; with HeLa it was more than 10 µM; in test [2], 3.9 µM.

Regarding `CCOc1cc(F)c(Cn2nc(-c3ncc(CC[S@@+](C)[O-])c(Nc4ccncc4)n3)c3ccccc32)c(F)c1` [Example 2-1-1, 2-[1-(4-ethoxy-2,6-difluorobenzyl)-1H-indazol-3-yl]-5-{2-[(R)-methylsulfinyl]ethyl}-N-(pyridin-4-yl)pyrimidin-4-amine], the IC50 in test [1] (setting [4]) came out at 0.005 µM; at Bub1, 1.4 µM; with HeLa it was 3.6 µM; in test [2] it was 0.15 µM.

As for `OCCOc1cc(F)c(Cn2nc(-c3nc4c(c(Nc5ccncn5)n3)CCC4)c3ccccc32)c(F)c1` [Example 2-6-19, 2-[3,5-difluoro-4-({3-[4-(pyrimidin-4-ylamino)-6,7-dihydro-5H-cyclopenta[d]pyrimidin-2-yl]-1H-indazol-1-yl}methyl)phenoxy]ethanol], the IC50 in test [1] (setting [4]) was 0.0089 µM; on Bub1 it was 0.0026 µM; in the test with HeLa, more than 10 µM; in test [2] it was 0.14 µM.

With `CCOc1cc(F)c(Cn2nc(-c3nc4c(c(Nc5ccncc5OC)n3)COC4)c3ccccc32)c(F)c1` [Example 2-19-17, 2-[1-(4-ethoxy-2,6-difluorobenzyl)-1H-indazol-3-yl]-N-(3-methoxypyridin-4-yl)-5,7-dihydrofuro[3,4-d]pyrimidin-4-amine], the IC50 in test [1] (setting [3]) was determined as 0.018 µM; on Bub1 it was 7.1 µM; in the test with HeLa it was 1.5 µM; in test [2], 0.14 µM.

In the case of `Cc1cc(Nc2nc(-c3nn(Cc4c(F)cc(OCCO)cc4F)c4ccccc34)nc3c2CCC3)ccn1` [Example 2-4-12, 2-{3,5-difluoro-4-[(3-{4-[(2-methylpyridin-4-yl)amino]-6,7-dihydro-5H-cyclopenta[d]pyrimidin-2-yl}-1H-indazol-1-yl)methyl]phenoxy}ethanol], the IC50 in test [1] (setting [3]) was 0.048 µM; at Bub1, 2.3 µM; with HeLa, 1.1 µM; in test [2], 3.3 µM.

For the compound `Cc1nccc(Nc2nc(-c3nn(Cc4c(F)cc(OCCO)cc4F)c4ccccc34)ncc2C2CCN(CC(F)(F)F)CC2)n1` [Example 2-6-16, 2-{3,5-difluoro-4-[(3-{4-[(2-methylpyrimidin-4-yl)amino]-5-[1-(2,2,2-trifluoroethyl)piperidin-4-yl]pyrimidin-2-yl}-1H-indazol-1-yl)methyl]phenoxy}ethanol], the IC50 was 0.55 µM in test [1] (setting [4]), 0.00056 µM on Bub1, more than 10 µM in the test with HeLa and 0.06 µM in test [2].

In the case of `CCOc1cc(F)c(Cn2nc(-c3nc4c(c(Nc5ccnc(NC(C)=O)c5)n3)CSC4)c3ccccc32)c(F)c1` [Example 2-19-3, N-[4-({2-[1-(4-ethoxy-2,6-difluorobenzyl)-1H-indazol-3-yl]-5,7-dihydrothieno[3,4-d]pyrimidin-4-yl}amino)pyridin-2-yl]acetamide], the IC50 in test [1] (setting [4]) was found to be 0.0089 µM; on Bub1, 0.34 µM; with HeLa, 2.1 µM; in test [2], 0.61 µM.

As to `OCCOc1cc(F)c(Cn2nc(-c3nc4c(c(Nc5ccnnc5)n3)CCC4)c3ccccc32)c(F)c1` [Example 2-4-10, 2-[3,5-difluoro-4-({3-[4-(pyridazin-4-ylamino)-6,7-dihydro-5H-cyclopenta[d]pyrimidin-2-yl]-1H-indazol-1-yl}methyl)phenoxy]ethanol, salt with hydrochloric acid], the IC50 in test [1] (setting [4]) is 0.018 µM; on Bub1, 0.01 µM; in the test on HeLa, more than 10 µM; in test [2] it was 1.2 µM.
